This passage reports Activity results from ChEMBL document CHEMBL3217615, “Novel 3,5-bis(arylidiene)-4-piperidone based monocarbonyl analogs of curcumin: anticancer activity evaluation and mode of action study” (2014).

Each structure is given as a SMILES string.

Format in all cases: functional
Experiment [1] concerns COLO 205. In words: Induction of apoptosis in human COLO205 cells assessed as late apoptosis cells level at 10 uM after 24 hrs by Annexin V/propidium iodide staining-based fluorescence microscopy.
The subject of experiment [2] is COLO 205. Description: Induction of apoptosis in human COLO205 cells assessed as DNA fragmentation at 10 uM.
Experiment [3] concerns COLO 205. In words: Induction of apoptosis in human COLO205 cells at 10 uM after 24 hrs by Annexin V/propidium iodide staining-based fluorescence microscopy.
Experiment [4] deals with COLO 205. Description: Induction of apoptosis in human COLO205 cells assessed as caspase 3/7 activation at 10 uM by FLICA.
Experiment [5] deals with COLO 205. In words: Induction of apoptosis in human COLO205 cells assessed as necrotic apoptosis cells level at 10 uM after 24 hrs by Annexin V/propidium iodide staining-based fluorescence microscopy.
Experiment [6] has as its system COLO 205. In words: Induction of apoptosis in human COLO205 cells assessed as viable cells level at 10 uM after 24 hrs by Annexin V/propidium iodide staining-based fluorescence microscopy.
Experiment [7] concerns COLO 205. In words: Induction of apoptosis in human COLO205 cells assessed as caspase 8 activation at 10 uM by FLICA.
Experiment [8] has as its system COLO 205. Description: Induction of apoptosis in human COLO205 cells assessed as caspase 9 activation at 10 uM by FLICA.
The subject of experiment [9] is COLO 205. Description: Induction of apoptosis in human COLO205 cells assessed as early apoptosis cells level at 10 uM after 24 hrs by Annexin V/propidium iodide staining-based fluorescence microscopy.

For the compound `CC[C@@]1(O)C(=O)OCc2c1cc1n(c2=O)Cc2cc3ccccc3nc2-1` [CAMPTOTHECIN], the Activity in experiment [1] is recorded as 17%; in experiment [2] it was 80.5%; in experiment [3] it was 53%; in experiment [4], 62%; in experiment [5], 0%; in experiment [6] it was 40%. Besides, the Activity amounted to 23.5% in experiment [7], 19.5% in experiment [8] and 42% in experiment [9].
